Reference: patent US11026419B2, “Silver- and copper-chelating ionic liquids, polymers, and gels, and uses thereof” (Massachusetts Institute of Technology, priority 2016, dated 2021)

Assays:
[1] = test system: HEK cells; test: Cell viability assay, LDH release; type: cell-based, human; conditions: 24 hours treatment, at the higher concentrations tested
Description: The toxicity of the compounds towards human cells was tested using HEK cell lines (FIG. 5), which were cultured in DMEM medium and 10% Fetal Bovine Serum at 37° C. in 5% CO2. 5×10^4 cells were seeded into 96-well plates 24 hours before treatment. Incremental concentrations of ionic liquids (diluted 2×) were added into the wells for another 24 hours. The release of the cytosolic enzyme lactate dehydrogenase (LDH) was then measured, following the manual of Pierce LDH Cytotoxicity Assay Kit (Thermofisher, Mass., USA). Untreated cells (live cells) and cells treated with lysis buffer for 2 hours (dead cells) were used as the reference for normalization. All experiments were performed in triplicate. […] Experiments were repeated using an MTX assay with the trend in the results matching those of the LDH assay.

[2] = test system: Pseudomonas aeruginosa (PA14); test: Antimicrobial sensitivity, colony forming units (CFU) of PA14; type: cell-based; conditions: PA14, compared with control samples (FIG. 2)
Source text: Antimicrobial sensitivity experiments used Pseudomonas aeruginosa (PA14, FIG. 2) a gram-negative monoflagellated bacterium. This is a model bacterium for such studies as it is […] and is an opportunistic human pathogen, colonizing immunocompromised patients, such as those with cystic fibrosis, cancer, or AIDS [15].

[3] = test system: PA14; test: Turbidity of PA14 solutions as indication of bacterial growth; type: cell-based, Pseudomonas aeruginosa; conditions: PA14 solution with 10 uL IL (FIG. 3)

Substance | reduced cell viability [1] [%] | drop in the colony-forming unit (CFU) [2] | turbidity / bacteria growth [3]
N-hexylethylenediaminium bis(trifluoroethanesulfonyl)amide [[HHex][Tf2N]] | ~50 | ~3 orders of magnitude | no turbidity
N-butyl(ethylenediaminium) bis(trifluoroethanesulfonyl)amide [[HButylen][Tf2N]] | ~50 |  | 
